Patent US10738024B2, “Compounds for treatment of angiogenesis-mediated diseases” (Indiana University Research and Technology Corporation, priority 2013, dated 2020)
“Also recorded” adds a separate entry of the source.

Columns and labels:
IκB-α = assay: TNF-α-mediated degradation of IκB-α in HRECs (immunoblot); format: cell-based, human; conditions: 20 ng/ml TNF-α, 20 minutes
Protocol: (§1) HRECs were seeded at 10^5 cells/well in a 6-well plate and after 24 hours of incubation at 37° C., cells were serum starved in 0.1% serum-EBM-2 for 8 hours. Cells were then treated with the indicated concentrations of SH-11052 (2) for one hour before the addition of 20 ng/ml of TNF-α. After 20 minutes, cells were lysed in NP-40 Lysis buffer containing 25 mM HEPES pH 7.4, 1% NP-40, 150 mM NaCl, 10% glycerol, 1 mM sodium orthovanadate, 10 mM sodium fluoride, 1 mM sodium pyrophosphate, 1 mM PMSF, 2.5 mg/ml aprotinin, 1 mM pepstatin, and 1 mM leupeptin. Equal amounts of proteins (80 μg), as measured by a Bradford assay, were run on 10% SDS-PAGE, transferred to PVDF membrane, blocked with 5% BSA in TBS-0.05% Tween-20 and immunoblotted with the indicated primary antibodies (1:1000 in 1% BSA in TBS-0.05% Tween-20) overnight at 4° C. After three washes in TBS-0.05% Tween-20, HRP-conjugated secondary antibodies (1:5000 in 5% BSA in TBS-0.05% Tween-20) were applied for one hour at room temperature. After three washes, the protein bands were detected and densitized using ECL Prime western blot detection reagent (GE Life Sciences, Piscataway, N.J., USA) and an XRS gel documentation system running Quantity One software (Bio-Rad). Target protein band intensity was normalized to housekeeping gene α-tubulin. […]

[1] = test system: Y-79 retinoblastoma cells; assay: ALAMARBLUE proliferation assay in Y-79 retinoblastoma cells; format: cell-based; conditions: 50% growth inhibitory concentration, 48 hours
Protocol: For proliferation assays, cells (2500 per well) were seeded in a 96-well clear bottom black polystyrene plate in a total volume of 100 μL. HUVECs and HRECs were grown in EGM-2 and CSC+ media respectively, while 92-1 and Y79 cells were maintained in RPMI+10% FBS, penicillin/streptomycin and RB medium (IMDM+10% FBS+penicillin/streptomycin+10 μg/mL insulin+55 μM β-mercaptoethanol) respectively. After 24 hours of incubation of the plate at 37° C., the compounds were dissolved in DMSO and added in the concentration range of 500 μM to 0.5 nM. The plate was then incubated at 37° C. and 5% CO2 conditions for 48 hours before adding 11.1 μL of alamar blue reagent for each well. Four hours after the addition of ALAMARBLUE® reagent, fluorescence readings with excitation and emission wavelengths of 560 nm and 590 nm respectively were taken and the data was analyzed in GraphPad Prism software. The dose response curves were generated and the GI50 values were calculated using the equation: Y=100/(1+10^(X−Log GI50)) (Table 1).

HRECs = assay: EdU incorporation (DNA synthesis) in HRECs; format: cell-based, human; conditions: 24 hours treatment, 10 μM EdU pulse; listed as SH-11052 (2)
Protocol: In order to confirm the inhibition of cell proliferation, incorporation of 5-ethynyl-2′-deoxyuridine (EdU) into endothelial cells in the presence of SH-11052 (2) was further monitored. Particularly, cells (25,000 per coverslip) were seeded onto coverslips coated with Attachment Factor (Cell Systems, Kirkland, Wash., USA) placed in a 6-well plate and incubated with the indicated concentrations of SH-11052 (2) in EGM-2 for 24 hours at 37° C. and 5% CO2. The cells were then serum starved for 8 hours and the medium was replaced with EGM-2 containing 10 μM EdU. The plate was further incubated for another 8 hours before processing the cells for detection of labeled DNA (according to the manufacturer's instructions for the Click-iT EdU assay kit). Images were taken using an EVOS fluorescence microscope (AMG, Mill Creek, Wash., USA) and the number of DAPI stained and EdU stained cells were counted in six randomly chosen fields using ImageJ software.

p38 MAPK = assay: Phosphorylation of p38 MAPK in HRECs after TNF-α (immunoblot); format: cell-based, human
Protocol: as §1

NF-κB p65 = assay: TNF-α induced NF-κB p65 nuclear translocation in HRECs (immunofluorescence); format: cell-based, human; conditions: 10 ng/ml TNF-α for 20 minutes
Protocol: Cells (25,000 per coverslip) were seeded onto coverslips coated with Attachment Factor (Cell Systems, Kirkland, Wash., USA) and incubated at 37° C. and 5% CO2 for 24 hours in EGM-2. The cells were starved in 0.1% serum-EBM-2 for 8 hours followed by 0.1% serum-EBM-2 medium for one hour in the presence of different concentrations of SH-11052 (2). The cells were induced with 10 ng/ml TNF-α, a known pro-inflammatory cytokine and inducer of NF-κB, for 20 minutes and fixed with 4% paraformaldehyde solution for 20 minutes at room temperature. Since NF-κB exerts its transcriptional activity in the nucleus, blockade of stimulus-induced nuclear translocation of NF-κB is an indication of NF-κB pathway inhibition.
Cells were quickly washed three times in TBS and permeabilized by incubating with 0.5% Triton X-100 for 10 minutes. The cells were blocked in 10% block solution (DAKO) in TBS plus 1% BSA followed by incubation with an antibody against NF-κB p65 (1:50 dilution). Dylight 488-conjugated goat anti-mouse secondary antibody (1:200 dilution) was used to probe the NF-κB p65 antibody. The coverslips were mounted using Vectashield mounting medium containing DAPI (Vector Labs) for nuclear staining. The cells were imaged using an LSM 700 confocal microscope (Zeiss). […]

p21, CDK1, IL-6 and IL-8 = assay: Gene expression effects on p21, CDK1, IL-6 and IL-8 (data not shown); format: cell-based; conditions: compared with cremastranone

Row | Compound | TNF-α-mediated degradation of IκB-α (IκB-α) | GI50 [1] | DNA synthesis (EdU incorporation) in HRECs (HRECs) | phosphorylation of p38 MAPK (p38 MAPK) | nuclear translocation of NF-κB (p65) upon TNF-α stimulation / NF-κB signaling (NF-κB p65; listed as SH-11052 (2)) | gene expression effects on p21, CDK1, IL-6 and IL-8 (p21, CDK1, IL-6 and IL-8) | nuclear translocation of NF-κB (p65) upon TNF-α stimulation / NF-κB signaling (NF-κB p65; listed as SH-11037 (6c))
1 | COc1ccc(CC2COc3cc(OC)c(O)c(O)c3C2=O)cc1O (single isomer, unassigned) [Compound 2] | significantly decreased in a dose dependent manner | 87 µM | blocked EdU incorporation; also recorded: significantly inhibited in a dose dependent manner | inhibited phosphorylation | blocked NF-κB signaling; also recorded: inhibited | – | –
2 | COc1ccc(CC2COc3cc(OC)c(OC)c(OC)c3C2=O)cc1OC(=O)[C@H](Cc1ccccc1)NC(=O)OC(C)(C)C (stereo partly drawn) [Compound 6c, (2S)-2-methoxy-5-((5,6,7-trimethoxy-4-oxochroman-3-yl)methyl)phenyl 2-((tert-butoxycarbonyl)amino)-3-phenylpropanoate] | – | 12 µM | – | – | – | did not share cremastranone's gene expression effects | did not inhibit NF-κB signaling
